Test results as given in PMC7290078, “Agonist bias and agonist‐dependent antagonism at corticotrophin releasing factor receptors” (Pharmacology Research & Perspectives, 2020).
No end group written: not given here.

Assays:
CRF1 receptor (hCRF1α) [1] = target: T1, CRF1 receptor (hCRF1α) (Homo sapiens, UniProt P34998); assay: cAMP accumulation (LANCE) in Cos7 cells transfected with hCRF1α, agonist stimulation; format: cell-based
T1 construct: host or cells: Cos7 cells, transient transfection (PEI), pcDNA3.0/3.1 vector
T1 sequence (P34998 24-415): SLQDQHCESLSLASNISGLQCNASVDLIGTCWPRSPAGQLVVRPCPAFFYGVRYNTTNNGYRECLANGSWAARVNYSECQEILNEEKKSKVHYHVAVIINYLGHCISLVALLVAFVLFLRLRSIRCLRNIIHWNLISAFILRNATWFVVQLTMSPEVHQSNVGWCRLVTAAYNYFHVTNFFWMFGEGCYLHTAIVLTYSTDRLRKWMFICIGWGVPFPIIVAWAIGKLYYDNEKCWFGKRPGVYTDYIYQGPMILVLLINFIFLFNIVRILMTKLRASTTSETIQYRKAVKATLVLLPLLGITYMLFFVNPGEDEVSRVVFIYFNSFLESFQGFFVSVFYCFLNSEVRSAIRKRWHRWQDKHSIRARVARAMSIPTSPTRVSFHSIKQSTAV
Description: (§1) Plasmids containing hCRF1α and hCRF2α (GenBank accession numbers AY457172 and AY449734) were obtained from the cDNA Resource Centre (Bloomsburg University) and are referred to as CRF1 and CRF2 in this manuscript. Hemagglutinin (HA) epitope‐tagged human Calcitonin (CT) receptor (CT(a) splice variant) and myc‐tagged human RAMP1 were used as described previously. ^27 HA‐tagged human calcitonin receptor‐like receptor (CLR), N‐terminal FLAG‐tagged human RAMP3 and N‐terminal myc‐tagged human RAMP3 were a gift from Professor David Poyner (Aston University) and Professor Patrick Sexton (Monash University), respectively. N‐terminal FLAG‐tagged human RAMP2 was used as described previously. ^28 All receptors and RAMPs were cloned in pcDNA3.0 or pcDNA3.1 plasmid vectors. All plasmid inserts were sequenced at the Centre for Genomics, Proteomics and Metabolomics (University of Auckland) and the sequences were verified prior to use.
Cos7, HEK‐293S, and HEK‐293T cells were cultured as described previously. ^28 , ^29 Cos7 cells were originally supplied by the ATCC to Associate Professor Nigel Birch (University of Auckland). HEK‐293S cells were a gift from Professor David Poyner (Aston University) and HEK‐293T cells a gift from Professor John Taylor (University of Auckland). Briefly, all cell lines were cultured in Dulbecco's Modified Eagle Medium (DMEM) supplemented with 8% heat inactivated fetal bovine serum (FBS) and maintained in a humidified incubator at 37°C with 5% CO2. For transfection, cells were counted (Countess CounterTM; Life Technologies) and plated at a density of 20 000 cells per well in 96‐well plates. The cells were transiently transfected 48 hours prior to assaying using polyethylenimine (PEI), as described previously. ^28 , ^29 In all experiments a total of 0.25 μg DNA was transfected per well. In the majority of experiments 0.25 μg DNA of receptor‐containing plasmid or the pcDNA3.1 plasmid without an insert was used. For experiments involving RAMPs, 0.125 μg of receptor DNA and 0.125 μg of RAMP‐containing plasmid DNA were transfected to give a 1:1 ratio of receptor to RAMP. […]
cAMP accumulation in Cos7 cells transfected with hCRF1α or hCRF2α receptors was measured using the LANCE cAMP detection assay kit (PerkinElmer Life and Analytical Sciences) as described previously. ^30 Briefly, culture media was removed and replaced with DMEM containing 0.1% bovine albumin serum (BSA) and 1 mmol/L 3‐isobutyl‐1‐methylxanthine (IBMX) for 30 minutes at 37°C. […] Samples were shaken for 15 minutes before 5 µL cell lysate was transferred to a white 384‐well optiplate and processed for cAMP quantification as described previously. ^31 Samples were read using an Envision plate reader (PerkinElmer). cAMP concentrations were determined from a standard curve generated in duplicate. […]

CRF1 receptor (hCRF1α) [2] = target: T1, CRF1 receptor (hCRF1α); assay: ERK1/2 phosphorylation (AlphaLISA Surefire Ultra) in Cos7 cells transfected with hCRF1α; format: cell-based
Description: as §1, with “All plasmid inserts were sequenced at the Centre for Genomics, Proteomics and Metabolomics (University of Auckland) and the sequences were verified prior to use.” left out
Cos7, HEK‐293S, and HEK‐293T cells were cultured as described previously. ^28 , ^29 Cos7 cells were originally supplied by the ATCC to Associate Professor Nigel Birch (University of Auckland). […] For transfection, cells were counted (Countess CounterTM; Life Technologies) and plated at a density of 20 000 cells per well in 96‐well plates. […]
The AlphaLISA Surefire Ultra extracellular signal‐regulated kinase 1/2 (ERK1/2) phosphorylation (pERK1/2) assay kit (PerkinElmer Life and Analytical Sciences) was used to measure pERK1/2 in cell lysates after agonist stimulation. […] Samples were read using an Envision plate reader (PerkinElmer). […]

Row | EC50 (CRF1 receptor (hCRF1α) [1]; cAMP, hCRF1α, Cos7, 15 min at 37°C, 1 mmol/L IBMX, 1 pmol/L to 1 µmol/L agonist, mean ± SEM, n = 5) [nM] | EC50 (CRF1 receptor (hCRF1α) [2]; pERK1/2, hCRF1α, Cos7, 7 min at 37°C, 1 pmol/L to 1 µmol/L agonist, mean ± SEM, n = 5) [nM] | Substance | concentration‐dependent increase in cAMP (CRF1 receptor (hCRF1α) [1]; CRF1 receptor) | concentration‐dependent increase in pERK1/2 (CRF1 receptor (hCRF1α) [2]; CRF1 receptor)
1 | 0.107 | 22.9 | DNPSLSIDLTFHLLRTLLELARTQSQRERAEQNRIIFDSV-NH2 [UCN1] | – | –
2 | – | – | IVLSLDVPIGLLQILLEQARARAAREQATTNARILARVGHC-NH2 (C-terminus assumed) [UCN2] | not UCN2 and UCN3 exhibited a concentration‐dependent increase | not UCN2 and UCN3 exhibited a concentration‐dependent increase
